Where “and” joins values, the source holds several entries; their conditions need not be identical. Equal values may be shown once.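 96-well plates; 48 h exposure; 5 concentrations. Endpoints by linear interpolation between flanking doses. Not reached: highest tested concentration assigned. GI50: concentration for 50% inhibition of growth. TGI denotes the concentration required for complete inhibition of growth.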
How the values were obtained:
Experiment in all cases: DTP human tumour cell line panel, 48 h
A498 renal = tested on: A498 renal
DMS 273 small cell lung = tested on: DMS 273 small cell lung
SK-MEL-28 melanoma = tested on: SK-MEL-28 melanoma
SK-MEL-5 melanoma = tested on: SK-MEL-5 melanoma
SNB-19 CNS = tested on: SNB-19 CNS
SNB-75 CNS = tested on: SNB-75 CNS
SR leukemia = tested on: SR leukemia
TK-10 renal = tested on: TK-10 renal
UACC-257 melanoma = tested on: UACC-257 melanoma
XF 498 CNS = tested on: XF 498 CNS

Row | SMILES | TGI (A498 renal) | TGI (DMS 273 small cell lung) | TGI (SK-MEL-28 melanoma) | TGI (SK-MEL-5 melanoma) | TGI (SNB-19 CNS) | TGI (SNB-75 CNS) | TGI (SR leukemia) | TGI (TK-10 renal) | TGI (UACC-257 melanoma) | TGI (XF 498 CNS) | GI50 (SR leukemia) | GI50 (TK-10 renal) | GI50 (A498 renal) | GI50 (DMS 273 small cell lung) | GI50 (SK-MEL-28 melanoma) | GI50 (SK-MEL-5 melanoma) | GI50 (SNB-19 CNS) | GI50 (SNB-75 CNS) | GI50 (UACC-257 melanoma) | GI50 (XF 498 CNS)
1 | Cc1ccc(CCNC(=S)SCC(NC(=O)CCC(N)C(=O)O)C(=O)NCC(=O)O)cc1 (configuration not stated) | 6.25 µM | 1.68 µM | 7.63 µM | 3.78 µM | 4.98 µM | 3.44 µM | 5.91 µM | 9.95 µM | 4.47 µM | 3.15 µM | – | – | – | – | – | – | – | – | – | –
2 | O=C(NC(c1ccccc1)C(O)C(=O)OCc1ccc2c(c1)C(=O)c1ccccc1C2=O)c1ccccc1 (configuration not stated) | 15.7 µM | > 100 µM | > 95.6 µM | 40.3 µM | 18.3 µM | 24.6 µM | > 88.3 µM | 53.2 µM | > 72 µM | 35.9 µM | – | – | – | – | – | – | – | – | – | –
3 | COc1cccc2c1C(=N)c1c(O)c3c(c(O)c1C2=O)C[C@@](O)(C(C)=O)C[C@@H]3OC1CC(N)C(O)C(C)O1 (some centres not stated) | 3.06 µM and 6.52 µM and 1.88 µM | 1.65 µM and 1.86 µM | 5.83 µM and 13.7 µM and 20.1 µM | 1.55 µM and 1.74 µM and 1.98 µM | – | – | – | 3.7 µM and 2.02 µM | 5.01 µM and 12.1 µM and 6.67 µM | 2.26 µM and 2.27 µM | 0.0196 µM | 0.234 µM | – | – | – | – | – | – | – | –
4 | COC(=O)C1CCC2(CC1)NC(=O)NC2=O (configuration not stated) | > 100 µM | > 100 µM | > 100 µM | > 100 µM | > 100 µM | > 100 µM | > 100 µM | > 100 µM | > 100 µM | > 100 µM | – | – | – | – | – | – | – | – | – | –
5 | COc1ccc(/C=C(\NC(=O)c2ccccc2)c2nc3ccccc3[nH]2)cc1 | > 100 µM | > 100 µM | 37.5 µM | 29 µM | > 100 µM | 99.4 µM | 89.8 µM | – | 58.7 µM | 46.2 µM | – | – | – | – | – | – | – | – | – | –
6 | C[CH2][Ge]1([CH2]C)[CH2]CC2(CCN(CCCN(C)C)C2)C[CH2]1 | 3.26 µM and 1.68 µM | 4.57 µM | 2.71 µM and 3.27 µM | 1.13 µM and 2.22 µM | 5.57 µM and 9.89 µM | 1.84 µM and 3.24 µM | 1.25 µM | 3.18 µM and 3.38 µM | 2.64 µM | 1.45 µM | 0.231 µM | 1.72 µM and 1.87 µM | 1.64 µM and 1.05 µM | 2.4 µM | 1.34 µM and 1.79 µM | 0.444 µM and 1.44 µM | 2.21 µM and 4.46 µM | 0.175 µM and 1.48 µM | 1.31 µM | 1.16 µM
7 | CCOc1ccccc1Nc1nc(C)c(C(=O)CC(=O)C(=O)Nc2ccccc2)s1 | > 100 µM | > 100 µM | > 100 µM | > 100 µM | > 100 µM | 88.6 µM | > 100 µM | > 100 µM | > 100 µM | > 100 µM | – | – | – | – | – | – | – | – | – | –
8 | CC(=O)/C=C\C(=O)NNS(=O)(=O)c1ccc(C)cc1 | > 100 µM | > 100 µM | > 100 µM | > 100 µM | > 100 µM | > 100 µM | > 100 µM | > 100 µM | > 100 µM | > 100 µM | – | – | – | – | – | – | – | – | – | –
9 | Cc1nn(C(=O)CC(=O)Nc2ccccc2Cl)c(C)c1N=Nc1ccccc1Cl | > 100 µM | > 100 µM | > 100 µM | > 100 µM | > 100 µM | > 100 µM | > 100 µM | > 100 µM | > 100 µM | > 100 µM | – | – | – | – | – | – | – | – | – | –
10 | O=C1OC2C(O)COC2(OCc2c[nH]c3ccccc23)C1O (configuration not stated) (tested in a mixture with another compound) | > 100 µM | > 100 µM | – | > 100 µM | > 100 µM | > 100 µM | > 100 µM | > 100 µM | > 100 µM | > 100 µM | – | – | – | – | – | – | – | – | – | –

From PubChem BioAssay (NCI)
